Reference: patent US20100130569A1, “PROPHYLACTIC OR THERAPEUTIC AGENT FOR POSTERIOR OCULAR DISEASE COMPRISING NON-ERGOT SELECTIVE D2 RECEPTOR AGONIST AS ACTIVE INGREDIENT” (SATEN PHARMACEUTICAL CO., LTD., priority 2007, published 2010)
Where a name gives a salt, the structure may show the parent alone. Read-outs that look alike come from different tables or passages of the source.

Assays:
[1] = test system: photoreceptor cell damage caused by light exposure; settings: for suppressive effect on photoreceptor cell damage (in words): mouse models of light damage, summary of Table 2; for Suppression rate (%) based on a-wave / Suppression rate (%) based on b-wave: mouse, one hour before light exposure, ERG one day after
Description: After a 0.5% (w/v) tropicamide-0.5% phenylephrine hydrochloride ophthalmic solution was instilled into the eyes of a mouse to cause mydriasis, light damage was induced in the mouse by light exposure (exposure conditions: illuminance level: 5000 Lux, exposure time: 2 hours) with an apparatus for inducing light damage (Sakami Medical Instrument).
Compound A was dissolved in a 1% (w/v) methyl cellulose solution (prepared by dissolving methyl cellulose in purified water) at a concentration of 0.006, 0.02, 0.06 or 0.2 mg/ml, whereby solutions of Compound A were prepared. Each of the solutions of Compound A was orally administered once at a dose of 0.03, 0.1, 0.3 or 1 mg/kg one hour before light exposure. Compound B was also orally administered in the same manner. That is, Compound B was dissolved in a 1% (w/v) methyl cellulose solution at a concentration of 0.02 or 0.2 mg/ml, whereby solutions of Compound B were prepared. Each of the solutions of Compound B was orally administered once at a dose of 0.1 or 1 mg/kg one hour before light exposure. In a vehicle administration group, a 1% (w/v) methyl cellulose solution was administered in the same manner.
One day after light exposure, each mouse was given general anesthesia by intramuscular administration of 2 ml/kg of a mixed solution of a 5% (w/v) ketamine hydrochloride injectable solution, a 2% xylazine hydrochloride injectable solution and physiological saline (7:1:8), and a 0.5% (w/v) tropicamide-0.5% phenylephrine hydrochloride ophthalmic solution was instilled into the eyes to cause mydriasis. Then, the electroretinogram (ERG) was measured using portable ERG & VEP LE-3000 (Tomey Corporation) (measurement conditions: stimulus luminance: 3000 cd/m^2, stimulus duration: 10 msec, background light luminance: 0 cd/m^2), and a- and b-wave amplitudes were calculated from the obtained waveforms. Then, the suppression rate (%) of the drug to be evaluated against the decrease in a- and b-wave amplitudes (photoreceptor cell damage) caused by light exposure was calculated in accordance with Equations 3 and 4. The case number in each administration group was 6 to 8 per group, and the mean value was used for calculating the suppression rate.
Suppression rate against photoreceptor cell damage (%) based on a-wave=(AAZ−AAY)/(AAX−AAY)×100 [Equation 3]
AAX: a-wave amplitude in normal (untreated) group AAY: a-wave amplitude in group with light exposure and vehicle administration AAZ: a-wave amplitude in group with light exposure and drug administration
Suppression rate against photoreceptor cell damage (%) based on b-wave=(ABZ−ABY)/(ABX−ABY)×100 [Equation 4]
ABX: b-wave amplitude in normal (untreated) group ABY: b-wave amplitude in group with light exposure and vehicle administration ABZ: b-wave amplitude in group with light exposure and drug administration

[2] = test system: laser-induced choroidal neovascularization; assay: rat models of krypton laser-induced choroidal neovascularization; assay type: in vivo; settings: for inhibitory effect on neovascularization in the choroid (in words): rat models of laser-induced choroidal neovascularization, summary of Table 1; for Suppression rate (%) (inhibition rate of choroidal neovascularization incidence): rat, day 7 after photocoagulation, vs vehicle
Description: The photocoagulation was performed in a posterior fundus at eight spots per eye sparsely by focusing on the retinal deep layer avoiding thick retinal blood vessels (coagulation conditions: spot size: 100 μm, output: 100 mW, coagulation time: 0.1 sec). After the photocoagulation, the ocular fundus was photographed, and the site where the laser was irradiated was confirmed.
Each of the solutions of Compound A at such concentrations was orally administered once daily at a dose of 0.3 mg/kg or 1 mg/kg starting from the day of photocoagulation surgery for 7 days including the day of surgery. […] Each of the solutions of Compound B at such concentrations was orally administered once daily at a dose of 0.3 mg/kg or 1 mg/kg starting from the day of photocoagulation surgery for 7 days including the day of surgery. On the other hand, Compound C was dissolved in PBS (phosphate buffer) at a concentration of 100 mg/ml, and the resulting solution of Compound C was intraperitoneally administered once daily at a dose of 100 mg/kg starting from the day of photocoagulation surgery for […] the day of surgery.
In the fluorescence fundus photography, a spot where fluorescence leakage was not observed (absence of neovascularization) was judged as negative, and a spot where fluorescence leakage was observed was judged as positive (presence of neovascularization). When there are two photocoagulation sites where a little fluorescence leakage was observed, they were judged as positive (presence of neovascularization). […] The case number in each administration group is 7 to 8.
Choroidal neovascularization incidence rate (%)=(Number of positive spots/total number of photocoagulation sites)×100 [Equation 1]
Inhibition rate (%)=(A0−Ax)/A0×100 [Equation 2]
A0: Choroidal neovascularization incidence rate of vehicle administration group Ax: Choroidal neovascularization incidence rate of drug administration group

[3] = test system: thrombin-induced retinal vascular hyperpermeability
Description: A rat was given general anesthesia by intramuscular administration of 1 ml/kg of a mixed solution of a 5% (w/v) ketamine hydrochloride injectable solution and a 2% xylazine hydrochloride injectable solution (7:1), and a 0.5% (w/v) tropicamide-0.5% phenylephrine hydrochloride ophthalmic solution was instilled into the eyes to cause mydriasis. Then, 5 μl of thrombin (600 U/mL) was injected into the vitreous body using a 33-gauge needle so as not to hurt the lens and retina. To a rat in a normal group, PBS (phosphate buffer) was injected instead of thrombin.
In a vehicle administration group, a 1% (w/v) methyl cellulose solution was administered in the same manner.
At 24 hours after intravitreal injection of thrombin, each rat was killed by exsanguination, and then, the eyeball of the rat was enucleated while avoiding contamination with blood. […] The collected vitreous body was appropriately diluted with purified water and the protein concentration was determined by the Bradford method. The thus determined protein concentration in the vitreous body was used as an index of retinal vascular permeability. Then, the suppression rate (%) of the drug to be evaluated against the retinal vascular hyperpermeability induced by thrombin was calculated in accordance with Equation 5. […]

[4] = 0.3 mg/kg orally once daily for 7 days
[5] = 1 mg/kg orally once daily for 7 days

Row | Compound | suppressive effect on photoreceptor cell damage (in words) [1] | Suppression rate (%) based on a-wave ([1]; 0.03 mg/kg orally once) [%] | Suppression rate (%) based on b-wave ([1]; 0.03 mg/kg orally once) [%] | Suppression rate (%) based on a-wave ([1]; 0.1 mg/kg orally once) [%] | Suppression rate (%) based on b-wave ([1]; 0.1 mg/kg orally once) [%] | Suppression rate (%) based on a-wave ([1]; 0.3 mg/kg orally once) [%] | Suppression rate (%) based on b-wave ([1]; 0.3 mg/kg orally once) [%] | Suppression rate (%) based on a-wave ([1]; 1 mg/kg orally once) [%] | Suppression rate (%) based on b-wave ([1]; 1 mg/kg orally once) [%] | inhibitory effect on neovascularization in the choroid (in words) [2] | Suppression rate (%) (inhibition rate of choroidal neovascularization incidence) [2, 4] | Suppression rate (%) (inhibition rate of choroidal neovascularization incidence) [2, 5] | suppressive effect on retinal vascular hyperpermeability (in words) ([3]; rat models of thrombin-induced retinal vascular hyperpermeability, summary of Table 3) | Suppression rate (%) against retinal vascular permeability ([3]; rat, 1 mg/kg orally immediately before and 20 hours after intravitreal thrombin, vitreous protein at 24 hours) [%] | Suppression rate (%) (inhibition rate of choroidal neovascularization incidence) ([2]; 100 mg/kg intraperitoneally once daily)
1 | CCCN[C@H]1CCc2nc(N)sc2C1 [Compound A, pramipexole hydrochloride] | significantly suppresses photoreceptor cell damage | 41.4 | 49.2 | 47.3 | 44.1 | 70.0 | 72.1 | 102.0 | 92.1 | inhibits choroidal neovascularization | 60.9 | 60.9 | excellent suppressive effect on retinal vascular hyperpermeability | 9.9 | –
2 | CC(C)C[C@H]1C(=O)N2CCC[C@H]2[C@]2(O)O[C@](NC(=O)[C@@H]3C=C4c5cccc6[nH]c(Br)c(c56)C[C@H]4N(C)C3)(C(C)C)C(=O)N12 [Compound B, bromocriptine mesilate] | hardly or not at all observed | – | – | 0.2 | −3.8 | – | – | 4.8 | 4.9 | hardly or not at all observed | −2.1 | 4.1 | – | – | –
3 | Cl.NCCc1ccc(O)c(O)c1 [Compound C, dopamine hydrochloride] | – | – | – | – | – | – | – | – | – | hardly or not at all observed | – | – | – | – | 11.8
